From US20260123631A1, “NATURAL PORPHIN SALT AND USE THEREOF AS PLANT GROWTH REGULATOR AND PLANT IMMUNITY INDUCER” (NANJING BOSTEC BIOLOGICAL ENGINEERING CO., LTD, priority 2022, published 2026)
Like-named read-outs stand apart in the source and are kept apart here.

Columns and labels:
chlorophyllase = assay: In vitro chlorophyllase-inhibiting activity test; type: biochemical, mung bean
Experimental: A chlorophyllase inhibition rate of a salt sample solution at each concentration was determined, and an IC50 value for a chlorophyllase inhibition activity of a salt sample was calculated.

[1] = Stability of sample solutions in the dark/under light; type: physicochemical
Experimental: Determination: An appropriate amount of a salt sample was taken, dissolved with water, and diluted to prepare a test solution with a concentration of about 10 ppm. An acidic reference substance (extremely-insoluble in water) was prepared with a 30% to 50% ethanol aqueous solution into a test solution with a concentration of about 10 ppm.
Each test solution was scanned by an ultraviolet spectrophotometer (at 0 h) for absorbance in a range of 200 nm to 800 nm immediately after being prepared. Then a test solution of each sample was divided into two parts. One part was placed at room temperature of 25° C. in the dark, and the other part was placed under light with a light intensity of 30,000 lux. At 1 h, 2 h, and 3 h, a solution sample was collected and scanned for absorbance respectively.
An absorbance value of a maximum absorption peak at 0 h (starting) of each test solution was set as a relative content of 100%, and a ratio of an absorbance value at each time point to the absorbance value at 0 h was calculated to determine a relative content, %.

[2] = Water solubility of the prepared salts; type: physicochemical
[3] = Dilution and pH determination for sample solutions; type: physicochemical
Experimental: Method: 0.2500 g of a sample was accurately weighed and added to a 25 mL volumetric flask, dissolved with purified water, and diluted to a specified scale to prepare a 1.00% (10,000.0 ppm) initial solution. The initial solution was diluted with purified water in different ratios to prepare a series of solutions with a concentration of 1,000.0 ppm to 0.1 ppm. A pH value of each sample was determined three times.

wheat = assay: Germination of wheat and growth of seedlings; type: in vivo, wheat (Huaimai 35); details: for Root length / Root number / Root weight / Seedling height / Seedling weight: wheat seedlings
Experimental: Method: 3 replicates were set for each treatment. 50 full seeds with a consistent size were selected each time for each sample, disinfected with sodium hypochlorite for 5 min, rinsed with clear water, and placed in a plastic box filled with 100 g of a sand. 25 mL of a prepared sample solution was poured into the plastic box, and the seeds were arranged regularly. The plastic box was covered with a lid, and then incubated in a 25° C. incubator. The germination was determined when a length of a sprout of a wheat seed exceeded a half of a diameter (long axis) of the wheat seed (determination criterion). According to the growth of wheat, the germ exposure of seeds and the number of germinated seeds were recorded every day. On day 6, 10 wheat seedlings were randomly selected, and a root length, a plant height, and a root number were determined. On day 7, a root weight and an aboveground part weight were determined. All index data was produced based on 3 replicates.

[4] = substrate chlorophyll 120 ppm, sample 0.3 ppm to 30.0 ppm
[5] = under light 30,000 lux, 1 h, salts in water, acidic reference in 30% to 50% ethanol
[6] = under light 30,000 lux, 2 h, salts in water, acidic reference in 30% to 50% ethanol
[7] = under light 30,000 lux, 3 h, salts in water, acidic reference in 30% to 50% ethanol

| Molecule | IC50 for chlorophyllase inhibition activity (chlorophyllase; [4]) | Relative content [1, 5] | Relative content [1, 6] | Relative content [1, 7] | solubility in water [2] | further results |
| --- | --- | --- | --- | --- | --- | --- |
| potassium iron chlorophyllin [Example 30] | 5.09 ppm | 72.04% | 65.63% | 57.54% | easily soluble | – |
| potassium copper chlorophyllin [Example 43] | 12.89 ppm | 83.53% | 77.11% | 78.11% | easily soluble | – |
| calcium copper chlorophyllin [Example 46] | 13.49 ppm | – | – | – | – | – |
| copper zinc chlorophyllin [Example 42] | 17.76 ppm | 88.43% | 93.28% | 70.90% | slightly soluble | – |
| potassium zinc chlorophyllin [Zinc chlorophyllin K^+] | 15.55 ppm | 52.48% | 46.08% | 41.51% | – | – |
| calcium chlorin [Example 56] | 6.43 ppm | – | – | – | – | – |
| ammonium chlorin [Example 54] | 6.05 ppm | – | – | – | – | – |
| manganese chlorin [Example 59] | 6.23 ppm | 44.94% | 40.28% | 34.21% | slightly soluble | – |
| manganese copper chlorophyllin [Example 47] | 13.85 ppm | 76.34% | 72.11% | 67.37% | soluble | – |
| C=CC1=C(C)c2cc3[n-]c(cc4nc(cc5[n-]c(cc1n2)c(C)c5C=C)C(C)=C4CCC(=O)[O-])c(CCC(=O)[O-])c3C.[Cl-].[Fe+3].[Mg+2] [Example 13, magnesium chlorhematin] | – | 82.11% | 81.84% | 75.61% | soluble | pH ([3]; 0.1 ppm in purified water): (6.92); pH ([3]; 1.0 ppm in purified water): (7.27); pH ([3]; 10.0 ppm in purified water): (7.63); pH ([3]; 20.0 ppm in purified water): (7.77); pH ([3]; 30.0 ppm in purified water): (7.87); pH ([3]; 100.0 ppm in purified water): (8.01); Relative content ([1]; in the dark, 25° C., 0 h): 100.00%; Relative content ([1]; in the dark, 25° C., 1 h): 100.10%; Relative content ([1]; in the dark, 25° C., 2 h): 99.76%; Relative content ([1]; in the dark, 25° C., 3 h): 99.38%; Relative content ([1]; under light 30,000 lux, 0 h): 100.00% |
| magnesium zinc chlorophyllin [Example 36] | 16.37 ppm | 53.53% | 45.74% | 39.42% | – | – |
| zinc iron chlorin [Example 28] | 5.66 ppm | 71.19% | 65.23% | 61.37% | slightly soluble | – |
| manganese iron chlorophyllin [Iron chlorophyllin Mn^2+] | 5.55 ppm | 70.13% | 61.00% | 58.68% | – | – |
| copper chlorin [Example 61] | 6.18 ppm | 85.27% | 82.15% | 80.17% | slightly soluble | – |
| zinc iron chlorophyllin [Iron chlorophyllin Zn^2+] | 5.16 ppm | 69.34% | 63.04% | 60.46% | – | – |
| C=CC1=C(C)c2cc3[n-]c(cc4nc(cc5[n-]c(cc1n2)c(C)c5C=C)C(C)=C4CCC(=O)[O-])c(CCC(=O)[O-])c3C.[Cl-].[Fe+3].[Na+].[Na+] [Example 11, sodium chlorhematin] | – | 74.11% | 69.68% | 67.73% | easily soluble | pH ([3]; 20 ppm solution in water (Comparative Test 2)): 7.5 |
| sodium copper chlorophyllin [Copper chlorophyllin Na^+] | 13.72 ppm | 72.50% | 67.03% | 66.30% | – | – |

| Molecule | IC50 for chlorophyllase inhibition activity (chlorophyllase; [4]) | Relative content [1, 5] | Relative content [1, 6] | Relative content [1, 7] | solubility in water [2] | further results |
| --- | --- | --- | --- | --- | --- | --- |
| ammonium iron chlorophyllin [Example 31] | 5.43 ppm | – | – | – | – | – |
| ammonium iron chlorin [Example 22] | 5.58 ppm | – | – | – | – | – |
| ammonium copper chlorophyllin [Example 44] | – | – | – | – | – | IC50 for chlorophyllase inhibition activity (chlorophyllase): 13.68 ppm |
| potassium protoporphyrin [Example 1] | – | 65.90% | 56.97% | 58.17% | easily soluble | Germination rate of wheat (wheat; 0.0025 ppm): 94.7%; Root length (wheat; 0.0025 ppm): 9.63 cm; Root number (wheat; 0.0025 ppm): 5.4; Root weight (wheat; 0.0025 ppm): 0.1230 g; Seedling height (wheat; 0.0025 ppm): 8.95 cm; Seedling weight (wheat; 0.0025 ppm): 0.241 g; Germination rate of wheat (wheat; 0.0250 ppm): 95.3%; Root length (wheat; 0.0250 ppm): 10.17 cm; Root number (wheat; 0.0250 ppm): 5.2; Root weight (wheat; 0.0250 ppm): 0.0976 g; Seedling height (wheat; 0.0250 ppm): 9.48 cm; Seedling weight (wheat; 0.0250 ppm): 0.242 g; Germination rate of wheat (wheat; 0.2500 ppm): 90.7%; Root length (wheat; 0.2500 ppm): 8.68 cm; Root number (wheat; 0.2500 ppm): 5.3; Root weight (wheat; 0.2500 ppm): 0.1134 g; Seedling height (wheat; 0.2500 ppm): 7.64 cm; Seedling weight (wheat; 0.2500 ppm): 0.228 g |
| calcium iron chlorin [Example 24] | 5.11 ppm | – | – | – | – | – |
| magnesium chlorin [Example 55] | 6.22 ppm | 43.47% | 35.26% | 30.41% | – | – |
| magnesium copper chlorophyllin [Example 45] | 11.87 ppm | 74.46% | 68.03% | 66.86% | – | – |
| magnesium iron chlorin [Example 23] | 5.06 ppm | 74.25% | 66.34% | 62.11% | – | – |
| calcium iron chlorophyllin [Iron chlorophyllin Ca^2+] | 5.38 ppm | 81.00% | 74.21% | 63.35% | – | – |
| potassium hydroxyhematin [Example 62] | – | 77.06% | 75.72% | 73.04% | easily soluble | – |
| manganese zinc chlorophyllin [Example 40] | – | – | – | – | – | IC50 for chlorophyllase inhibition activity (chlorophyllase): 18.10 ppm |
| C=CC1=C(C)c2cc3[nH]c(cc4nc(cc5[nH]c(cc1n2)c(C)c5C=C)C(C)=C4CCC(=O)[O-])c(CCC(=O)[O-])c3C.[Cu+2] [Example 9, copper protoporphyrin] | – | 96.42% | 95.56% | 94.88% | slightly soluble | – |
| ammonium zinc chlorophyllin [Example 35] | 18.06 ppm | – | – | – | – | – |
| C=CC1=C(C)c2cc3[n-]c(cc4nc(cc5[n-]c(cc1n2)c(C)c5C=C)C(C)=C4CCC(=O)[O-])c(CCC(=O)[O-])c3C.[Fe+3].[Na+].[Na+].[OH-] [Sodium hydroxyhematin, sodium hydroxyhematin, reference compound] | – | 70.21% | 62.33% | 57.03% | easily soluble | – |
| calcium zinc chlorophyllin [Example 37] | – | – | – | – | – | IC50 for chlorophyllase inhibition activity (chlorophyllase): 17.78 ppm |
| sodium zinc chlorophyllin [Zinc chlorophyllin Na^+] | 15.91 ppm | 51.90% | 42.51% | 37.81% | – | – |
